Experimental data as given in US20230027295A1, “FXIA INHIBITORS AND PREPARATION METHOD THEREFOR AND PHARMACEUTICAL USE THEREOF” (Shenzhen Salubris Pharmaceuticals Co., Ltd., priority 2019, published 2023).

Experiments:
CYP1A2 = target: T1, CYP1A2 (Homo sapiens, UniProt P05177); assay: CYP enzyme inhibition in liver microsomes: CYP1A2; assay type: in vitro ADME; conditions: 0.2 mg/mL liver microsomes
T1 construct: Liver microsomes (150-donor, Corning, Cat. 452117; Lot; 38292), NADPH; tissue Corning 452117; host or cells: liver microsomes, 150-donor pool
T1 sequence (P05177 1-516): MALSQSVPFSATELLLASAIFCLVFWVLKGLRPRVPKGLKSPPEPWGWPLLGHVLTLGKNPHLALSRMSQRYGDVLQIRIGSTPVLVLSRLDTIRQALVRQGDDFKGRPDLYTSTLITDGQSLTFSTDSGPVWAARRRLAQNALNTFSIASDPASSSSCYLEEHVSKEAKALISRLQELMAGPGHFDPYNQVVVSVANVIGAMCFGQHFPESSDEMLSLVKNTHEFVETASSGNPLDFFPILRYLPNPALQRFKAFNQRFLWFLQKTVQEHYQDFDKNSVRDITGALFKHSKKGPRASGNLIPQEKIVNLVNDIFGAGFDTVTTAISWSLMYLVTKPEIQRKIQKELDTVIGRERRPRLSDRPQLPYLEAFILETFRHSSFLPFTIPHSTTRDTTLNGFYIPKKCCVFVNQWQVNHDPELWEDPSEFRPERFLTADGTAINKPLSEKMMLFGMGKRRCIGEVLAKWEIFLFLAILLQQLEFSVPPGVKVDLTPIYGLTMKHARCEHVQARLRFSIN
Method: Example 55: Investigation of CYP Enzyme Inhibition by the Compounds of the Present Invention Liver microsomes (150-donor, Corning, Cat. 452117; Lot. 38292), NADPH. A 0.2 mg/mL microsome system was prepared, each test substance and substrate were added, and the final concentration of the test substance was 50 μM. After pre-incubating for 8 min, 10 mM NADPH was added to start the reaction, and the final concentration of NADPH was 1 mM. After a period of incubation, an internal standard such as methanol was added to stop the reaction. The amount of substrate metabolites generated in each reaction well was detected. Data processing: Taking the metabolite generation in the blank well as 100%, the reduction of metabolite generation in each well of the test substance was calculated, and the inhibition rate was calculated.

hERG = target: T2, hERG (Homo sapiens, UniProt Q12809); assay: hERG current in HEK293-hERG stably transfected cells; assay type: cell-based; conditions: human, HEK293 cells stably transfected with hERG; at 10 μM; read-out: hERG peak current inhibition
T2 construct: host or cells: HEK293
Method: (§1) Example 56: Investigation on hERG of the Compound of the Present Invention
(§2) HEK293-hERG stably transfected cell line (invitrogen). DMEM medium (Gibco), HEPES (invitrogen), Blasticidin (invitrogen)
(§3) HEK293-hERG stably transfected cells were used for experiments when they were cultured to a degree of polymerization of 40%-80%. First, a blank solvent was applied to the cells to establish a baseline. […] In the presence of test compounds, hERG currents were recorded for approximately 5 minutes to reach a steady state, and then 5 sweep frequencies were captured. To ensure good performance of cultured cells and manipulations, the same batch of cells was also tested using the positive control dofetilide.
(§4) Peak current inhibition=(1−Peak tail current compound/Peak tail current vehicle)*100

hERG current = target: T3, hERG current (Homo sapiens, UniProt Q12809); assay: as above; assay type: cell-based; conditions: HEK293-hERG cells
T3 construct: host or cells: HEK293
Method: as §1, §2, §3, §4

[1] = Beagle dog pharmacokinetics; assay type: in vivo; conditions: for AUC / Cmax / Tmax / clearance / half-life / Vd: male, plasma; for Vd: read-out: Vss
Description: Example 53: Investigation of the Pharmacokinetic Characteristics of the Compounds of the Present Invention
SD rats: male, 180-250 g, purchased from Guangdong Medical Laboratory Animal Center. Cynomolgus monkey: male, 4-6 kg, purchased from Guangzhou Chunsheng Biological Research Institute Co., Ltd. Beagle dog: male, 8-12 kg, developed in Kanglong Chemical (Ningbo) New Drug Technology Co., Ltd.
Reagents: DMSO (dimethyl sulfoxide), PEG-400 (polyethylene glycol 400), normal brine, heparin, acetonitrile, formic acid, and propranolol (internal standard) are commercially available.
Instrumentation: Thermo Fisher Scientific LC-MS (U300 UPLC, TSQ […] ULTRA triple quadrupole mass spectrometer).
The compound was weighed and dissolved in DMSO-PEG-400-physiological brine (5:60:35, v/v/v) system. After the rats/monkeys were administered intravenously or by gavage, 200 μL of venous blood was collected at 5 min (not collected when administered by gavage), 15 min, 30 min, 1 h, 2 h, 4 h, 6 h, 8 h, and 24 h in heparinized EP tubes, centrifuged at 12000 rpm for 2 min, and the plasma was frozen at −80° C. for testing. A certain amount of the test substance was precisely weighed and dissolved in DMSO to 1 mg/mL, which was used as a stock solution. An appropriate amount of compound stock solution was accurately pipetted and diluted with acetonitrile to prepare a standard series of solutions. 20 μL of each of the above standard series solutions were accurately pipetted, added with 180 μL of blank plasma, vortexed and mixed to prepare plasma samples equivalent to plasma concentrations of 1, 3, 10, 30, 100, 300, 1000, 3000 and 5000 ng/mL. Two-sample analysis was performed for each concentration to establish a standard curve. 20 μL of plasma was taken out, added with 200 μL of internal standard propranolol (5 ng/mL) in acetonitrile, vortexed and mixed. It was centrifuged at 4000 rpm for 5 min, and the supernatant was collected for LC-MS analysis. LC-MS detection conditions were as follows:
Chromatographic column: Thermo Scientific […] GOLD C-18 UPLC column, 100*2.1 mm, 1.9 μm.
Mobile phase: water (0.1% formic acid)-acetonitrile for gradient elution according to the table below.
After blood drug concentrations being detected by LC-MS, WinNonlin 6.1 software was used to calculate pharmacokinetic parameters by non-compartmental model method.

T2 sequence (Q12809 whole entry): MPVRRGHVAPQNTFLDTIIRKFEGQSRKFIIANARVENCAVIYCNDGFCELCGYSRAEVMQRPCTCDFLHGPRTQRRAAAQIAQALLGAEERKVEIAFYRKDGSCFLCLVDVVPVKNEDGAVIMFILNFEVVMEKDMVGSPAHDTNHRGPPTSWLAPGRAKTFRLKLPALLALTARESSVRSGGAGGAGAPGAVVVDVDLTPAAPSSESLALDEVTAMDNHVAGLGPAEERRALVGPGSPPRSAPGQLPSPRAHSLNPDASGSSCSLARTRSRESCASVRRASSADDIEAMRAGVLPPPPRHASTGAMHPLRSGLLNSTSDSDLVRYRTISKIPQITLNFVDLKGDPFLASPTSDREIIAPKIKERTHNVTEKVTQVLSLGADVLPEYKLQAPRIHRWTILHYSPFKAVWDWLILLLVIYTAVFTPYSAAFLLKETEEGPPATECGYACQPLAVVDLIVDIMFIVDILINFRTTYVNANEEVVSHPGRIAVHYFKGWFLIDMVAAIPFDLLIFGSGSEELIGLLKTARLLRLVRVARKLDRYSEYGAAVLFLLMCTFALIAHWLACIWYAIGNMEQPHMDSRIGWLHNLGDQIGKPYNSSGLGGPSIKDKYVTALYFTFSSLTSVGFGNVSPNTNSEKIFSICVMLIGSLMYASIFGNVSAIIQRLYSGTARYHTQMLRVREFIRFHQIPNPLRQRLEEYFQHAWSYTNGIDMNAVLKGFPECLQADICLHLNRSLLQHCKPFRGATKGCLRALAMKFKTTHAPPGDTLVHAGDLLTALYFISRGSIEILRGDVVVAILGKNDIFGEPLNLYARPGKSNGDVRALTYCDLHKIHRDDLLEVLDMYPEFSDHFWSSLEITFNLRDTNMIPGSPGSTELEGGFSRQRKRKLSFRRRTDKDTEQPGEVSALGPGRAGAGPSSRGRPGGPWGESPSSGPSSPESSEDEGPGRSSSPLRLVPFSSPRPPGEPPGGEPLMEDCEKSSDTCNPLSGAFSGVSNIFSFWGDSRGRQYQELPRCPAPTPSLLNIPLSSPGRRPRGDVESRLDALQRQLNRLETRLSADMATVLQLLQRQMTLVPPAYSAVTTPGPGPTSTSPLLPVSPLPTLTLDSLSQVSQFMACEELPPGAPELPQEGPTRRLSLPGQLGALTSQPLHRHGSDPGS
T3 sequence (Q12809 whole entry): as above

IC50 (CYP1A2) [µM]	F ([1]; ig) [%]	AUC ([1]; iv) [ng·h/mL]	Cmax ([1]; iv) [ng/mL]	Tmax ([1]; iv) [h]	clearance ([1]; iv) [mL/min/kg]	half-life ([1]; iv) [h]	Vd ([1]; iv) [L/kg]	AUC ([1]; po, ig) [ng·h/mL]	Cmax ([1]; po, ig) [ng/mL]	Tmax ([1]; po, ig) [h]	half-life ([1]; po, ig) [h]	SMILES	inhibition at 5 min, 10 µM (hERG) [%]	IC50 (hERG current) [µM]
> 50	65.5	1410	2580	0.083	11.8	4.2	0.8	9230	2320	1.25	3.6	COc1nn([C@@H](Cc2ccccc2)C(=O)Nc2ccc(C(=O)O)cc2)c(=O)cc1-c1cc(Cl)ccc1C(C)=O [Example 19, (S)-4-(2-(4-(2-acetyl-5-chlorophenyl)-3-methoxy-6-oxopyridazin-1(6H)-yl)-3-phenylpropanamido)benzoic acid]	1.17	> 10
> 50	49.6	756	2190	0.083	22.7	7.77	2.64	3770	1600	0.25	4.51	CCC(=O)c1ccc(Cl)cc1-c1cc(=O)n([C@@H](Cc2ccccc2)C(=O)Nc2ccc(C(=O)O)cc2)nc1OC [Example 32]	2.8	> 10
